Source: patent publication US20100144733A1, “Compounds, compositions and methods comprising heteroaromatic derivatives” (Institute for OneWorld Health, priority 2008, published 2010)

Target: T1, CFTR (Homo sapiens, UniProt P13569)
T1 construct: endogenous in cells; host or cells: T84 human colonic cells (ECACC)
Assay: T84 assay (FLIPR membrane potential dye, forskolin/IBMX-stimulated CFTR channel activity)
Format: cell-based
Details: imidazole and triazole-containing compounds (Tables 13, 14, 14′), read-out: IC50 (μM) (T84 assay)
Experimental: (§1) For example, Human colonic T84 cells can be acquired from the European Collection of Cell Cultures (ECACC) and grown in standard culture conditions as described by the supplier. On the day before assay 25,000 T84 cells per well are plated into standard black walled, clear bottom 384-well assay plates in standard growth medium consisting of DMEM:F12 with 10% FBS and incubated overnight. On the day of the assay the plates are washed using a standard assay buffer (HBSS with 10 mM Hepes) and incubated for 15 minutes in serum free cell culture medium before the addition of a commercially available membrane potential sensitive fluorescent dye (FLIPRRed membrane potential dye, Molecular Devices Corporation). T84 cells are incubated with the FLIPRRed membrane potential dye for 45 minutes in the presence and absence of test compound before being transferred to a commercially available fluorescence imaging plate reader (FLIPR384, Molecular Devices Corporation). Fluorescence levels are monitored continuously every second for 150 seconds; after an initial 10 second baseline, CFTR channel activity is stimulated through the addition of 10 μM forskolin in the presence of 100 μM of the phosphodiesterase inhibitor iso-butyl-methylxanthine (IBMX). Addition of the forskolin leads to the activation of intracellular adenylyl cylase 1, elevating cAMP levels and results in the phosphorylation and opening of CFTR anion channels. CFTR channel opening causes chloride ion efflux and subsequent depolarization of the cells, which is measured by an increase in fluorescence. CFTR inihibitor compounds prevent cell depolarization and the associatred increase in fluorescence.
as §1, with “Human colonic” for “For example, Human colonic”, “T84 cells are acquired from” for “T84 cells can be acquired from”, “(ECACC) and are grown in” for “(ECACC) and grown in”, “10 μM Forskolin in the” for “10 μM forskolin in the”, “fluorescence. CFTR inhibitor compounds prevent” for “fluorescence. CFTR inihibitor compounds prevent”, “and the associated increase in” for “and the associatred increase in”

T1 sequence (P13569 whole entry): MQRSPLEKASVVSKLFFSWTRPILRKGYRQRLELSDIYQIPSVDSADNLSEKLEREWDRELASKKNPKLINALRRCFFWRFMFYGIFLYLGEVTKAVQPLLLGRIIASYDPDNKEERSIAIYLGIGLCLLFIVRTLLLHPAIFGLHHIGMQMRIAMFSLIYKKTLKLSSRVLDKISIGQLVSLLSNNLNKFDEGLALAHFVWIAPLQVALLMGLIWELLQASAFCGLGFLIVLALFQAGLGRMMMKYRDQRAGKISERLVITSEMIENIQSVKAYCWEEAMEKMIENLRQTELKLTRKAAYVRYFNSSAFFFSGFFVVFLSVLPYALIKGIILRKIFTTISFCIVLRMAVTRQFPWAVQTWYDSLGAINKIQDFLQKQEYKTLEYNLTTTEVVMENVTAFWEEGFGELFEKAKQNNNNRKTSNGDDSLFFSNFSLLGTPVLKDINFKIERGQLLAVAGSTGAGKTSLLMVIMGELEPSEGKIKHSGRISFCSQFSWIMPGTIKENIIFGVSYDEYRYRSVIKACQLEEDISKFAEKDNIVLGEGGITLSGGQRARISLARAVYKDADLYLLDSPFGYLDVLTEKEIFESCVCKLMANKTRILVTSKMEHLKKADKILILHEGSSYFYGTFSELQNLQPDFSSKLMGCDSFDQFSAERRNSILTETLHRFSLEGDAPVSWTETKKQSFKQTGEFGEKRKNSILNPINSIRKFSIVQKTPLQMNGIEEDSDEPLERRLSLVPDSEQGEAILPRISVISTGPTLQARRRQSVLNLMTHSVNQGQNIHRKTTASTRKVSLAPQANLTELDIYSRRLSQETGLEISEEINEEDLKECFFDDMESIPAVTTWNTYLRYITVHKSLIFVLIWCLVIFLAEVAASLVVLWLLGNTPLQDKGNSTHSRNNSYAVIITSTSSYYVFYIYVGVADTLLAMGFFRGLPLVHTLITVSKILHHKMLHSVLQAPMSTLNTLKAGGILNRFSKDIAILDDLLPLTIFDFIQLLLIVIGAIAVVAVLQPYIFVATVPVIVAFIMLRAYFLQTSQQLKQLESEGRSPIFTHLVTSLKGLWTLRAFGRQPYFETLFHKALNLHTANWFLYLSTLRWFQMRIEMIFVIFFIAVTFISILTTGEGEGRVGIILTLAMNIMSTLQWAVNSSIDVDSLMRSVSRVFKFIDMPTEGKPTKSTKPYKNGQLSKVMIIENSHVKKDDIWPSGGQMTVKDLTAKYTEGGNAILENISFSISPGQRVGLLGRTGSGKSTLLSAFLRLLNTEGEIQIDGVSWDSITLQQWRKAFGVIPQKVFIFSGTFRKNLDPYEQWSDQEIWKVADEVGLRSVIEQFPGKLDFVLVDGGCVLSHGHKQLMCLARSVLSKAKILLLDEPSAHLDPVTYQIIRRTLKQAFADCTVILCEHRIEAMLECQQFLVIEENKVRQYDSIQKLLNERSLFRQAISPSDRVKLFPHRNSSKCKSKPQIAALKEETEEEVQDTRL

| IC50 | Compound |
| --- | --- |
| 24.4 µM | O=C(NCc1cc(Cl)ccc1F)c1ncn(-c2cc(Cl)c(O)c(Cl)c2)n1 [27i, N-(5-chloro-2-fluorobenzyl)-1-(3,5-dichloro-4-hydroxyphenyl)-1H-1,2,4-triazole-3-carboxamide] |
| 3.01 µM | CC(C)(C)CCN(Cc1cccc(OC(F)(F)F)c1)C(=O)c1ncn(-c2cc(Cl)c(O)c(Cl)c2)n1 [77i, 1-(3,5-dichloro-4-hydroxyphenyl)-N-(3,3-dimethylbutyl)-N-(3-(trifluoromethoxy)benzyl)-1H-1,2,4-triazole-3-carboxamide] |
| 27.8 µM | O=C(NCc1ccccc1Cl)c1ncn(-c2cc(Cl)c(O)c(Cl)c2)n1 [30i, N-(2-chlorobenzyl)-1-(3,5-dichloro-4-hydroxyphenyl)-1H-1,2,4-triazole-3-carboxamide] |

Same assay, conditions: isoxazole-containing compounds (Table 10, 10′, 11, 11′), read-out: IC50

| IC50 | Compound |
| --- | --- |
| 16.6 µM | CN(Cc1cccc(C(F)(F)F)c1)C(=O)c1cc(-c2cc(Br)c(O)c(Br)c2)on1 [3g, 5-(3,5-dibromo-4-hydroxyphenyl)-N-methyl-N-(3-(trifluoromethyl)benzyl)isoxazole-3-carboxamide] |

Same assay, conditions: oxadiazole-containing compounds (a series), average of at least 2 runs unless annotated n = 1, read-out: IC50

| IC50 | Compound |
| --- | --- |
| 1.03 µM | O=C(c1nc(-c2cc(Br)c(O)c(Br)c2)no1)N(Cc1cccnc1)Cc1cccc(C(F)(F)F)c1 [2a, 3-(3,5-dibromo-4-hydroxyphenyl)-N-(pyridin-3-ylmethyl)-N-(3-(trifluoromethyl)benzyl)-1,2,4-oxadiazole-5-carboxamide] |
| 6.14 µM | COCCOCCN(Cc1cccc(C(F)(F)F)c1)C(=O)c1nc(-c2cc(Cl)c(O)c(Cl)c2)no1 [111a, 3-(3,5-dichloro-4-hydroxyphenyl)-N-(2-(2-methoxyethoxy)ethyl)-N-(3-(trifluoromethyl)benzyl)-1,2,4-oxadiazole-5-carboxamide] |
| 5.67 µM | O=C(NCc1cc(F)c(F)c(F)c1)c1noc(-c2cc(Cl)c(O)c(Cl)c2)n1 [118a, 5-(3,5-dichloro-4-hydroxyphenyl)-N-(3,4,5-trifluorobenzyl)-1,2,4-oxadiazole-3-carboxamide] |
| 2.12 µM | O=C(NCc1cccc(Cl)c1)c1noc(-c2cc(Cl)c(O)c(Cl)c2)n1 [86a, N-(3-chlorobenzyl)-5-(3,5-dichloro-4-hydroxyphenyl)-1,2,4-oxadiazole-3-carboxamide] |
| 8.65 µM | O=C(NCc1cccc(C(F)(F)F)c1)c1nc(-c2cc(Cl)c(O)c(Cl)c2)no1 [134a, 3-(3,5-dichloro-4-hydroxyphenyl)-N-(3-(trifluoromethyl)benzyl)-1,2,4-oxadiazole-5-carboxamide] |
| 24.4 µM | CN(Cc1ccc(N2CCOCC2)cc1)C(=O)c1nc(-c2cc(Cl)c(O)c(Cl)c2)no1 [187a, 3-(3,5-dichloro-4-hydroxyphenyl)-N-methyl-N-(4-morpholinobenzyl)-1,2,4-oxadiazole-5-carboxamide] |
| 24.4 µM | O=C(NCc1cc(F)cc(F)c1)c1nc(-c2cc(Cl)c(O)c(Cl)c2)no1 [137a, 3-(3,5-dichloro-4-hydroxyphenyl)-N-(3,5-difluorobenzyl)-1,2,4-oxadiazole-5-carboxamide] |
| 10.5 µM | O=C(NCc1cc(C(F)(F)F)cc(C(F)(F)F)c1)c1nc(-c2cc(Br)c(O)c(Br)c2)no1 [20a, N-(3,5-bis(trifluoromethyl)benzyl)-3-(3,5-dibromo-4-hydroxyphenyl)-1,2,4-oxadiazole-5-carboxamide] |
| 3.89 µM | O=C(NCc1cc(F)cc(C(F)(F)F)c1)c1nc(-c2cc(Cl)c(O)c(Cl)c2)no1 [154a, 3-(3,5-dichloro-4-hydroxyphenyl)-N-(3-fluoro-5-(trifluoromethyl)benzyl)-1,2,4-oxadiazole-5-carboxamide] |
| 3.42 µM | CN(Cc1ccc(C(F)(F)F)cc1)C(=O)c1noc(-c2cc(Cl)c(O)c(Cl)c2)n1 [87a, 5-(3,5-dichloro-4-hydroxyphenyl)-N-methyl-N-(4-(trifluoromethyl)benzyl)-1,2,4-oxadiazole-3-carboxamide] |
| 13.1 µM | O=C(Nc1cccc(OC(F)(F)F)c1)c1nc(-c2cc(Br)c(O)c(Br)c2)no1 [24a, 3-(3,5-Dibromo-4-hydroxyphenyl)-N-(3-(trifluoromethoxy)phenyl)-1,2,4-oxadiazole-5-carboxamide] |
| 10 µM | O=C(NCc1ccc(Oc2cccc(F)c2)cc1)c1nc(-c2cc(Cl)c(O)c(Cl)c2)no1 [194a, 3-(3,5-dichloro-4-hydroxyphenyl)-N-(4-(3-fluorophenoxy)benzyl)-1,2,4-oxadiazole-5-carboxamide] |
| 23.4 µM | O=C(NCc1cc(C(F)(F)F)ccc1F)c1nc(-c2cc(Cl)c(O)c(Cl)c2)no1 [126a, 3-(3,5-dichloro-4-hydroxyphenyl)-N-(2-fluoro-5-(trifluoromethyl)benzyl)-1,2,4-oxadiazole-5-carboxamide] |
| 18.6 µM | CN(Cc1ccccc1)C(=O)c1nc(-c2cc(Cl)c(O)c(Cl)c2)no1 [62a, N-benzyl-3-(3,5-dichloro-4-hydroxyphenyl)-N-methyl-1,2,4-oxadiazole-5-carboxamide] |
| 13.6 µM | Cc1ccc(Oc2ccc(CNC(=O)c3nc(-c4cc(Cl)c(O)c(Cl)c4)no3)cc2)cc1Cl [193a, N-(4-(3-chloro-4-methylphenoxy)benzyl)-3-(3,5-dichloro-4-hydroxyphenyl)-1,2,4-oxadiazole-5-carboxamide] |
| 2.6 µM | O=C(NCc1cccc(C(F)(F)F)c1)c1noc(-c2cc(Cl)c(O)c(Cl)c2)n1 [74a, 5-(3,5-dichloro-4-hydroxyphenyl)-N-(3-(trifluoromethyl)benzyl)-1,2,4-oxadiazole-3-carboxamide] |
| 8.14 µM | O=C(NCc1ccc(F)c(F)c1)c1noc(-c2cc(Cl)c(O)c(Cl)c2)n1 [80a, 5-(3,5-dichloro-4-hydroxyphenyl)-N-(3,4-difluorobenzyl)-1,2,4-oxadiazole-3-carboxamide] |
| 13.8 µM | O=C(NCc1ccc(OC(F)(F)F)cc1)c1nc(-c2cc(Br)c(O)c(Br)c2)no1 [29a, 3-(3,5-Dibromo-4-hydroxyphenyl)-N-(4-(trifluoromethoxy)benzyl)-1,2,4-oxadiazole-5-carboxamide] |
| 9.87 µM | O=C(NCc1cccc(Oc2ccccc2)c1)c1nc(-c2cc(Cl)c(O)c(Cl)c2)no1 [145a, 3-(3,5-dichloro-4-hydroxyphenyl)-N-(3-phenoxybenzyl)-1,2,4-oxadiazole-5-carboxamide] |
| 5.11 µM | CN(Cc1cccc(-c2cccnc2)c1)C(=O)c1nc(-c2cc(Cl)c(O)c(Cl)c2)no1 [185a, 3-(3,5-dichloro-4-hydroxyphenyl)-N-methyl-N-(3-(pyridin-3-yl)benzyl)-1,2,4-oxadiazole-5-carboxamide] |
| 17.9 µM | O=C(NCc1ccc(Oc2cc(F)cc(Br)c2)cc1)c1nc(-c2cc(Cl)c(O)c(Cl)c2)no1 [201a, N-(4-(3-bromo-5-fluorophenoxy)benzyl)-3-(3,5-dichloro-4-hydroxyphenyl)-1,2,4-oxadiazole-5-carboxamide] |
| 16.7 µM | O=C(NCc1ccccc1C(F)(F)F)c1nc(-c2cc(Cl)c(O)c(Cl)c2)no1 [129a, 3-(3,5-dichloro-4-hydroxyphenyl)-N-(2-(trifluoromethyl)benzyl)-1,2,4-oxadiazole-5-carboxamide] |
| 14.5 µM | COc1ccccc1N1CCN(C(=O)c2nc(-c3cc(Br)c(O)c(Br)c3)no2)CC1 [26a, (3-(3,5-dibromo-4-hydroxyphenyl)-1,2,4-oxadiazol-5-yl)(4-(2-methoxyphenyl)piperazin-1-yl)methanone] |

Same assay, conditions: thiadiazole-containing compounds (Table 12), read-out: IC50

| IC50 | Compound |
| --- | --- |
| 13.4 µM | Oc1c(Cl)cc(-c2nnc(-c3snnc3-c3ccccc3)s2)cc1Cl [5h, 2,6-dichloro-4(5-(4-phenyl-1,2,3-thiadiazol-5-yl)-1,3,4-thiadiazol-2-yl)phenol] |
